Measurements from article PMC11609934, “Exploration and characterization of the antimalarial activity of cyclopropyl carboxamides that target the mitochondrial protein, cytochrome b” (European Journal of Medicinal Chemistry, 2024).

What was measured:
[1] = tested on: P. falciparum 3D7 parasites; test: P. falciparum 3D7 asexual stage LDH assay (72 h); assay type: cell-based, Plasmodium falciparum; settings: for EC50: Plasmodium falciparum, 3D7, 72 h, LDH activity of P. falciparum 3D7 parasites over 72 h, means and SDs, three or more experiments, read-out: Pf 3D7 EC50 (SD)
Protocol: To establish the SAR, synthesized analogs were assessed against the asexual stage parasite (72 h) using LDH as a proxy for parasite growth inhibition. Cytotoxicity was monitored against the human HepG2 cell line using Cell TitreGlo as a metabolic marker for cell growth.
P. falciparum 3D7 Asexual Stage LDH Assay. This is a platform assay is routinely undertaken at the Walter and Eliza Hall Institute and details on the protocol has been previously published. Briefly, 10-point dilution series of the compounds were prepared in 384 well assay plates using an Echo555 (Labcyte). Appropriate volumes of 10 mM compound stocks were transferred into the assay plates such that the starting concentration was 1 μM, with a 1 in 3-fold dilution series. All wells were backfilled with DMSO to 40 nL such that this remained constant (0.1 % DMSO). The positive growth control was 0.1 % DMSO and the negative growth control was 100 nM chloroquine. The parasite inoculum (40 μL) was dispensed into plates containing compounds using a Multidrop Combi dispenser (Thermo Scientific). […] Following 72 h growth, plates were sealed with parafilm and frozen at −80 °C overnight. Plates were thawed at room temperature for at least 4 h prior to LDH activity being measured. […] Plates were shaken to ensure mixing and absorbance at 650 nm was measured in an EnVision (PerkinElmer) plate reader after 30 min of incubation at room temperature. […] The equation used is sigmoidal dose response (variable slope), Y = bottom + (top − bottom)/(1 + 10((logEC50 − X) × Hill Slope)).

[2] = Human HepG2 growth inhibition assay (Cell TitreGlo, 48 h); assay type: cell-based; settings: human, HepG2 cells, HepG2 cell growth inhibition over 48 h
Protocol: To establish the SAR, synthesized analogs were assessed against the asexual stage parasite (72 h) using LDH as a proxy for parasite growth inhibition. Cytotoxicity was monitored against the human HepG2 cell line using Cell TitreGlo as a metabolic marker for cell growth. Cyt b inhibitors typically have high lipophilicity, and so calculated physicochemical properties were determined, while in vitro ADME was also collected on representative analogs to gauge their suitability for efficacy studies in a 4-day P. berghei model.
Human HepG2 Growth Inhibition Assay. This is a routine assay undertaken at the Walter and Eliza Hall Institute and the method has been previously published. HepG2 cells were cultured in Dulbeccos modified eagles medium (DMEM) supplemented with 10 % fetal calf serum (FCS), in a humidified incubator at 37 °C and 5 % CO2. Assay plates (Greiner #781098, 384 well, white, tissue culture treated) were prepared by transferring appropriate volumes of 10 mM compound stocks using an Echo555 (Labcyte) such that the starting concentration was 50 μM, with a 1:2-fold dilution series. All wells were backfilled with DMSO to […] such that this remained constant (0.5 % DMSO). The positive growth control was 0.5 % DMSO and the negative growth control was 10 μM Bortezomib. HepG2 cells were seeded with 1000 cells in 50 μL DMEM with 10 % FCS into each well of the assay plates using a Multidrop Combi dispenser (Thermo Scientific). Plates were incubated at 37 °C and 5 % CO2 for 48 h. Cytotoxicity was determined using Cell Titer Glo (Promega) and calculated as a percentage using DMSO as the positive growth control and 10 μM Bortezomib as a negative growth control. EC50 values were calculated by Dotmatics 5.3 and Spotfire 7.11.1 software using a nonlinear regression four-parameter fit analysis. The equation used is sigmoidal dose response (variable slope), Y = bottom + (top − bottom)/(1 + 10((logEC50 − X) × Hill Slope)).

SMILES	EC50 [1] [nM]	CC50 at 48 h [2] [nM]	fold decrease in Pf 3D7 activity relative to 17 ([1]; ratio of EC50 to compound 17) [fold]
CC(C)c1cccc(CN(Cc2ccc(C(=O)NC3CC3)cc2)C2CC2)c1 [Compound 54, N-Cyclopropyl-4-((cyclopropyl(3-isopropylbenzyl)amino)methyl)benzamide]	80	> 40000	
CC(C)c1ccc(CN(Cc2ccc(C(=O)NC3CC3)cc2)C2CC2)cc1 [Compound 55, N-Cyclopropyl-4-((cyclopropyl(4-isopropylbenzyl)amino)methyl)benzamide]	110	> 40000	
CC(C)(C)c1ccc(CN(Cc2ccc(C(=O)NC3CC3)cc2)C2CC2)cc1 [Compound 56]	60	> 40000	
COc1ccccc1CN(Cc1ccc(C(=O)NC2CC2)cc1)C1CC1 [Compound 57]	270	> 40000	
COc1cccc(CN(Cc2ccc(C(=O)NC3CC3)cc2)C2CC2)c1 [Compound 58]	490	> 40000	
COc1ccc(CN(Cc2ccc(C(=O)NC3CC3)cc2)C2CC2)cc1 [Compound 59]	230	> 40000	
N#Cc1ccccc1CN(Cc1ccc(C(=O)NC2CC2)cc1)C1CC1 [Compound 60]	120	> 40000	
N#Cc1cccc(CN(Cc2ccc(C(=O)NC3CC3)cc2)C2CC2)c1 [Compound 61]	130	> 40000	
N#Cc1ccc(CN(Cc2ccc(C(=O)NC3CC3)cc2)C2CC2)cc1 [Compound 62]	630	> 40000	
CN(C)c1ccc(CN(Cc2ccc(C(=O)NC3CC3)cc2)C2CC2)cc1 [Compound 63, N-Cyclopropyl-4-((cyclopropyl(4-(dimethylamino)benzyl)amino)methyl)benzamide]	530	> 40000	
CN(C)c1cccc(CN(Cc2ccc(C(=O)NC3CC3)cc2)C2CC2)c1 [Compound 64, N-Cyclopropyl-4-((cyclopropyl(3-(dimethylamino)benzyl)amino)methyl)benzamide]	320	> 40000	
CC(=O)Nc1ccccc1CN(Cc1ccc(C(=O)NC2CC2)cc1)C1CC1 [Compound 65, 4-(((2-Acetamidobenzyl) (cyclopropyl)amino)methyl)-N-cyclopropylbenzamide]	7400	> 40000	
CC(=O)c1cccc(CN(Cc2ccc(C(=O)NC3CC3)cc2)C2CC2)c1 [Compound 68]	110	> 40000	
CC(=O)c1ccc(CN(Cc2ccc(C(=O)NC3CC3)cc2)C2CC2)cc1 [Compound 69]	900	> 40000	
O=C(NC1CC1)c1ccc(CN(Cc2cccc(CO)c2)C2CC2)cc1 [Compound 70, N-Cyclopropyl-4-((cyclopropyl(3-(hydroxymethyl)benzyl)amino)methyl)benzamide]	1100	> 40000	
O=C(NC1CC1)c1ccc(CN(Cc2ccc(CO)cc2)C2CC2)cc1 [Compound 71, N-Cyclopropyl-4-((cyclopropyl(4-(hydroxymethyl)benzyl)amino)methyl)benzamide]	170	> 40000	
O=C(NC1CC1)c1ccc(CN(Cc2ccc(F)cc2F)C2CC2)cc1 [Compound 72, N-Cyclopropyl-4-((cyclopropyl(2,4-difluorobenzyl)amino)methyl)benzamide]	230	> 40000	
O=C(NC1CC1)c1ccc(CN(Cc2ccc(F)c(F)c2)C2CC2)cc1 [Compound 73]	220	> 40000	
O=C(NC1CC1)c1ccc(CN(Cc2cc(F)cc(F)c2)C2CC2)cc1 [Compound 74]	220	> 40000	
O=C(NC1CC1)c1ccc(CN(Cc2c(F)cc(F)cc2F)C2CC2)cc1 [Compound 75, N-Cyclopropyl-4-((cyclopropyl(2,4,6-trifluorobenzyl)amino)methyl)benzamide]	190	> 40000	

SMILES	EC50 [1] [nM]	CC50 at 48 h [2] [nM]	fold decrease in Pf 3D7 activity relative to 17 ([1]; ratio of EC50 to compound 17) [fold]
O=C(NC1CC1)c1ccc(CN(Cc2ccc(Cl)c(Cl)c2)C2CC2)cc1 [Compound 76]	210	> 40000	
O=C(NC1CC1)c1ccc(CN(Cc2cc(Cl)cc(Cl)c2)C2CC2)cc1 [Compound 77]	230	> 40000	
O=C(NC1CC1)c1ccc(CN(Cc2c(Cl)cc(Cl)cc2Cl)C2CC2)cc1 [Compound 78, N-Cyclopropyl-4-((cyclopropyl(2,4,6-trichlorobenzyl)amino)methyl)benzamide]	100	> 40000	
Cc1ccc(CN(Cc2ccc(C(=O)NC3CC3)cc2)C2CC2)c(C)c1 [Compound 80, N-Cyclopropyl-4-((cyclopropyl(2,4-dimethylbenzyl)amino)methyl)benzamide]	190	> 40000	
Cc1cc(C)cc(CN(Cc2ccc(C(=O)NC3CC3)cc2)C2CC2)c1 [Compound 81]	190	> 40000	
Cc1cc(C)c(CN(Cc2ccc(C(=O)NC3CC3)cc2)C2CC2)c(C)c1 [Compound 82, N-Cyclopropyl-4-((cyclopropyl(2,4,6-trimethylbenzyl)amino)methyl)benzamide]	80	> 40000	
COc1cc(OC)c(CN(Cc2ccc(C(=O)NC3CC3)cc2)C2CC2)c(OC)c1 [Compound 83, N-Cyclopropyl-4-((cyclopropyl(2,4,6-trimethoxybenzyl)amino)methyl)benzamide]	2500	> 40000	
O=C(NC1CC1)c1ccc(CN(Cc2cc(C(F)(F)F)cc(C(F)(F)F)c2)C2CC2)cc1 [Compound 84, 4-(((3,5-Bis(trifluoromethyl)benzyl) (cyclopropyl)amino)methyl)-N-cyclopropylbenzamide]	100	15000	
O=C(NC1CC1)c1ccc(CN(Cc2ccccn2)C2CC2)cc1 [Compound 85]	6600	> 40000	
O=C(NC1CC1)c1ccc(CN(Cc2ccncc2)C2CC2)cc1 [Compound 87]	9200	> 40000	
CCCN(Cc1ccc(C(=O)NC2CC2)cc1)C1CC1 [Compound 90, N-Cyclopropyl-4-((cyclopropyl(propyl)amino)methyl)benzamide]	2500	> 40000	
CC(C)N(Cc1ccc(C(=O)NC2CC2)cc1)C1CC1 [Compound 91, N-Cyclopropyl-4-((cyclopropyl(isopropyl)amino)methyl)benzamide]	2600	> 40000	
CC(C)(C)CN(Cc1ccc(C(=O)NC2CC2)cc1)C1CC1 [Compound 93]	460	> 40000	
O=C(NC1CC1)c1ccc(CN(CC2CCC2)C2CC2)cc1 [Compound 94]	520	> 40000	
O=C(NC1CC1)c1ccc(CN(CC2CCCC2)C2CC2)cc1 [Compound 95]	510	> 40000	
O=C(NC1CC1)c1ccc(CN(CC2CCCCC2)C2CC2)cc1 [Compound 96]	240	> 40000	
CC(c1ccc(C(=O)NC2CC2)cc1)N(Cc1ccccc1)C1CC1 (stereo not drawn) [Compound 98, 4-(1-(Benzyl(cyclopropyl)amino)ethyl)-N-cyclopropylbenzamide]	340	> 40000	2
O=C(NC1CC1)c1ccc(CN(C2CC2)S(=O)(=O)c2ccccc2)cc1 [Compound 101]	2300	> 40000	
O=C(NC1CC1)c1ccc(S(=O)(=O)N(Cc2ccccc2)C2CC2)cc1 [Compound 102, 4-(N-Benzyl-N-cyclopropylsulfamoyl)-N-cyclopropylbenzamide]	4800	> 40000	
O=C(NC1CC1)c1ccc(CN(Cc2ccccc2)C2CC2)cn1 [Compound 103, 5-((Benzyl(cyclopropyl)amino)methyl)-N-cyclopropylpicolinamide]	7600	> 40000	
